Assays:
Type in all cases: in vivo
Stellaria media = experiment: Herbicidal screen, post-emergence spray of seedlings in pots: Chickweed; set-up: key to percentage increase in necrosis relative to the control: no detected effect at this concentration; a percentage increase in necrosis relative to the control of 0.1-50; b: a percentage increase in necrosis of 50-80; a percentage increase in necrosis of 80-100; details: assessed 10 days after treatment; for pest or weed control at 12.5 g/ha / pest or weed control at 25 g/ha / pest or weed control at 50 g/ha / pest or weed control at 100 g/ha: Stellaria media, post-emergence, 240 h, read-out: percentage increase in necrosis relative to the control
Experimental: (§1) Compounds were screened at four concentrations (100, 50, 25 and 12.5 g/ha) against four weed species (Stellaria media—Chickweed; Abutilon theophrasti—velvetleaf; Amaranthus retroflexus—common amaranthus; Echinochloa crus-galli—Barnyard grass) and maize as a crop species. Seed were sown in 12.5 cm diameter pots (20 per pot for the weed species and 5 for maize). Seedlings were sprayed with 2 ml of compound two weeks after sowing, with 2 ml water used as the control. Each treatment was replicated three times. Plants were maintained at 20° C. and assessed 10 days after treatment. The assessment was based on the % plant in each pot showing growth. The data is presented in Table 1 in which d represents no detected effect at this concentration; c represents a percentage increase in necrosis relative to the control of 0.1-50; b represents a percentage increase in necrosis of 50-80; and a represents a percentage increase in necrosis of 80-100.

maize = experiment: Herbicidal screen, post-emergence spray of seedlings in pots: crop species; set-up: key to percentage increase in necrosis relative to the control: no detected effect at this concentration; a percentage increase in necrosis relative to the control of 0.1-50; b: a percentage increase in necrosis of 50-80; a percentage increase in necrosis of 80-100; details: assessed 10 days after treatment; for plant injury at 12.5 g/ha / plant injury at 25 g/ha / plant injury at 50 g/ha / plant injury at 100 g/ha: Zea mays, post-emergence, 240 h, read-out: percentage increase in necrosis relative to the control
Experimental: as §1

Echinochloa crus-galli = experiment: Herbicidal screen, post-emergence spray of seedlings in pots: Barnyard grass; set-up: key to percentage increase in necrosis relative to the control: no detected effect at this concentration; a percentage increase in necrosis relative to the control of 0.1-50; b: a percentage increase in necrosis of 50-80; a percentage increase in necrosis of 80-100; details: assessed 10 days after treatment; for pest or weed control at 12.5 g/ha / pest or weed control at 25 g/ha / pest or weed control at 50 g/ha / pest or weed control at 100 g/ha: Echinochloa crus-galli, post-emergence, 240 h, read-out: percentage increase in necrosis relative to the control
Experimental: as §1

four weed species = experiment: Herbicidal screen, summary across the four weed species; details: summary in words, 12.5-100 g/ha
Experimental: as §1

Amaranthus retroflexus = experiment: Herbicidal screen, post-emergence spray of seedlings in pots: common amaranthus; set-up: key to percentage increase in necrosis relative to the control: no detected effect at this concentration; a percentage increase in necrosis relative to the control of 0.1-50; b: a percentage increase in necrosis of 50-80; a percentage increase in necrosis of 80-100; details: assessed 10 days after treatment; for pest or weed control at 12.5 g/ha / pest or weed control at 25 g/ha / pest or weed control at 50 g/ha / pest or weed control at 100 g/ha: Amaranthus retroflexus, post-emergence, 240 h, read-out: percentage increase in necrosis relative to the control
Experimental: as §1

Abutilon theophrasti = experiment: Herbicidal screen, post-emergence spray of seedlings in pots: velvetleaf; set-up: key to percentage increase in necrosis relative to the control: no detected effect at this concentration; a percentage increase in necrosis relative to the control of 0.1-50; b: a percentage increase in necrosis of 50-80; a percentage increase in necrosis of 80-100; details: assessed 10 days after treatment; for pest or weed control at 12.5 g/ha / pest or weed control at 25 g/ha / pest or weed control at 50 g/ha / pest or weed control at 100 g/ha: Abutilon theophrasti, post-emergence, 240 h, read-out: percentage increase in necrosis relative to the control
Experimental: as §1

Row | Compound | pest or weed control at 12.5 g/ha (Stellaria media; 12.5 g/ha) | pest or weed control at 25 g/ha (Stellaria media; 25 g/ha) | pest or weed control at 50 g/ha (Stellaria media; 50 g/ha) | pest or weed control at 100 g/ha (Stellaria media) | plant injury at 12.5 g/ha (maize; 12.5 g/ha) | plant injury at 25 g/ha (maize; 25 g/ha) | plant injury at 50 g/ha (maize) | plant injury at 100 g/ha (maize) | pest or weed control at 12.5 g/ha (Echinochloa crus-galli; 12.5 g/ha) | pest or weed control at 25 g/ha (Echinochloa crus-galli; 25 g/ha) | pest or weed control at 50 g/ha (Echinochloa crus-galli) | pest or weed control at 100 g/ha (Echinochloa crus-galli) | herbicidal activity against the weed species (four weed species) | pest or weed control at 12.5 g/ha (Amaranthus retroflexus; 12.5 g/ha) | pest or weed control at 25 g/ha (Amaranthus retroflexus; 25 g/ha) | pest or weed control at 50 g/ha (Amaranthus retroflexus) | pest or weed control at 100 g/ha (Amaranthus retroflexus) | pest or weed control at 25 g/ha (Abutilon theophrasti) | pest or weed control at 50 g/ha (Abutilon theophrasti) | pest or weed control at 100 g/ha (Abutilon theophrasti) | also measured
1 | Cl.Cn1c(C(F)(F)F)cc(=O)n(-c2cc(C(=O)NS(=O)(=O)C3CCNCC3)c(Cl)cc2F)c1=O [Example 2, 2-Chloro-4-fluoro-5-(3-methyl-2,6-dioxo-4-(trifluoromethyl)-3,6-dihydropyrimidin-1(2H)-yl)-N-(piperidin-4-ylsulfonyl)benzamide hydrochloride] | 50 to 80% | 50 to 80% | 50 to 80% | 80 to 100% | 0.1 to 50% | 0.1 to 50% | 50 to 80% | 50 to 80% | 0.1 to 50% | 50 to 80% | 50 to 80% | 80 to 100% | good activity across several of the weed species | 80 to 100% | 80 to 100% | 80 to 100% | 80 to 100% | 50 to 80% | 50 to 80% | 80 to 100% | pest or weed control at 12.5 g/ha (Abutilon theophrasti; 12.5 g/ha): 50 to 80%
2 | CN1CCC(S(=O)(=O)NC(=O)c2cc(-n3c(=O)cc(C(F)(F)F)n(C)c3=O)c(F)cc2Cl)C1.Cl (centres unmarked) [Example 5, 2-Chloro-4-fluoro-5-(3-methyl-2,6-dioxo-4-(trifluoromethyl)-3,6-dihydropyrimidin-1(2H)-yl)-N-((1-methylpyrrolidin-3-yl)sulfonyl)benzamide hydrochloride] | 0.1 to 50% | 0.1 to 50% | 50 to 80% | 50 to 80% | 0.1 to 50% | 0.1 to 50% | 0.1 to 50% | 0.1 to 50% | 0.1 to 50% | 0.1 to 50% | 0.1 to 50% | 50 to 80% | good activity across several of the weed species | 80 to 100% | 80 to 100% | 80 to 100% | 80 to 100% | 50 to 80% | 80 to 100% | 80 to 100% | pest or weed control at 12.5 g/ha (Abutilon theophrasti; 12.5 g/ha): 0.1 to 50%
3 | Cn1c(C(F)(F)F)cc(=O)n(-c2cc(C(=O)NS(=O)(=O)C3(C)CC3)c(Cl)cc2F)c1=O [Example 7, 2-Chloro-4-fluoro-5-(3-methyl-2,6-dioxo-4-(trifluoromethyl)-3,6-dihydropyrimidin-1(2H)-yl)-N-((1-methylcyclopropyl)sulfonyl)benzamide] | 0.1 to 50% | 50 to 80% | 50 to 80% | 80 to 100% | 0.1 to 50% | 0.1 to 50% | 0.1 to 50% | 50 to 80% | 0.1 to 50% | 0.1 to 50% | 50 to 80% | 80 to 100% | good activity across several of the weed species | 80 to 100% | 80 to 100% | 80 to 100% | 80 to 100% | 80 to 100% | 80 to 100% | 80 to 100% | pest or weed control at 12.5 g/ha (Abutilon theophrasti; 12.5 g/ha): 0.1 to 50%
4 | Cn1c(C(F)(F)F)cc(=O)n(-c2cc(C(=O)NS(=O)(=O)C3CCCC3)c(Cl)cc2F)c1=O [Example 13, 2-Chloro-N-(cyclopentylsulfonyl)-4-fluoro-5-(3-methyl-2,6-dioxo-4-(trifluoromethyl)-3,6-dihydropyrimidin-1(2H)-yl)benzamide] | 0.1 to 50% | 0.1 to 50% | 0.1 to 50% | 0.1 to 50% | 0.1 to 50% | 0.1 to 50% | 0.1 to 50% | 0.1 to 50% | 0.1 to 50% | 0.1 to 50% | 0.1 to 50% | 0.1 to 50% | good activity across several of the weed species | 50 to 80% | 50 to 80% | 80 to 100% | 80 to 100% | 50 to 80% | 50 to 80% | 80 to 100% | pest or weed control at 12.5 g/ha (Abutilon theophrasti; 12.5 g/ha): 0.1 to 50%
5 | Cn1c(C(F)(F)F)cc(=O)n(-c2cc(C(=O)NS(=O)(=O)C3CC3)ccc2F)c1=O [Example 15, N-(Cyclopropylsulfonyl)-4-fluoro-3-(3-methyl-2,6-dioxo-4-(trifluoromethyl)-3,6-dihydropyrimidin-1(2H)-yl)benzamide] |  |  |  | 0.1 to 50% |  |  | 0.1 to 50% | 0.1 to 50% |  |  | 0.1 to 50% | 0.1 to 50% |  |  |  | 50 to 80% | 50 to 80% | 0.1 to 50% | 50 to 80% | 50 to 80% | percentage increase in necrosis relative to the control (Stellaria media; 12.5 g/ha): d; percentage increase in necrosis relative to the control (Stellaria media; 25 g/ha): d; percentage increase in necrosis relative to the control (Stellaria media; 50 g/ha): d; percentage increase in necrosis relative to the control (maize; 12.5 g/ha): d; percentage increase in necrosis relative to the control (maize; 25 g/ha): d; percentage increase in necrosis relative to the control (Echinochloa crus-galli; 12.5 g/ha): d; percentage increase in necrosis relative to the control (Echinochloa crus-galli; 25 g/ha): d; percentage increase in necrosis relative to the control (Amaranthus retroflexus; 12.5 g/ha): d; percentage increase in necrosis relative to the control (Amaranthus retroflexus; 25 g/ha): d; percentage increase in necrosis relative to the control (Abutilon theophrasti; 12.5 g/ha): d

Source: US11634390B2, “Agricultural chemicals” (GLOBACHEM NV, priority 2016, dated 2023)
